These results are taken from patent US12331042B2, “Compounds suitable for the treatment and prophylaxis of muscle wasting and other conditions” (priority 2019, dated 2025).

Data set [1] is described as follows: Storage stability at room temperature (NMR, LC-MS). Type of data set: physicochemical. As to conditions: several months storage at room temperature; confirmed via NMR and LC-MS. An excerpt:
[2-(2-Furylmethylcarbamoylamino)-2-oxo-ethyl]

The subject of data set [2] is porin, telethonin, MRPS-5, MuRF1, MuRF2, Tom20 expression. The experiment in a line: Western blot analysis of diaphragm, CHF mice. Type of data set: in vivo. As for the experimental part: For western blot analyses, frozen diaphragm was homogenized in relaxing buffer (90 mmol/L HEPES, 126 mmol/L potassium chloride, 36 mmol/L sodium chloride, 1 mmol/L magnesium chloride, 50 mmol/L EGTA, 8 mmol/L ATP, and 10 mmol/L creatine phosphate, pH 7.4) containing a protease inhibitor mix (Inhibitor Mix M, Serva, Heidelberg, Germany) and sonicated. Protein concentration of the supernatant was determined (bicinchoninic acid assay, Pierce, Bonn, Germany), and aliquots (5-20 μg) were separated by sodium dodecyl sulfate-polyacrylamide gel electrophoresis. Proteins were transferred to a polyvinylidene fluoride membrane and incubated overnight at 4° C. using the following primary antibodies: porin and telethonin (both 1/1000, Abcam, Cambridge, UK), MRPS-5 ( 1/500, Thermo Fisher, Rockford, IL, USA), MuRF1 and MuRF2 (both 1/1000; commercially available from Myomedix, Neckargemünd, Germany), and Tom20 (1:200, Santa Cruz Biotechnologies, Heidelberg, Germany). Membranes were subsequently incubated with a horseradish peroxidase conjugated secondary antibody, specific bands were visualized by enzymatic chemiluminescence (Super Signal West Pico, Thermo Fisher Scientific Inc., Bonn, Germany), and densitometry was quantified using a one-dimensional scan software package (Scanalytics Inc., Rockville, MD, USA). Measurements were normalized to the loading control GAPDH ( 1/30000; HyTest Ltd, Turku, Finland) or α-tubulin (1:1000, Santa Cruz Biotechnologies). All data are presented as fold change relative to sham.
(In general: In western blotting, separated proteins are transferred to a membrane and probed.)

The test system of another data set is MuRF1 central fragment. Kind of data set: Differential scanning fluorimetry (DSF) of MuRF1 central fragment. Type of data set: binding. Particulars: 100 μM compound, 1% DMSO in PBS, 75 μM protein; 65.8° C. with 1% DMSO alone. The method, then: The effect of compound MyoMed-946 on MuRF1 protein stability was determined in vitro by differential scanning fluorimetry (DSF).
“MuRF1 central fragment” was expressed as previously described (Mrosek M et al., FASEB J, 2007, 21, 1383-1392) and used in DSF experiments at 75 μM final concentration. Compound MyoMed-946 was diluted from a 10 mM stock in DMSO to 100 μM in PBS as DSF assay buffer, resulting in a final concentration of 1% DMSO. After 1 hour pre-incubation at room temperature, the aqueous protein solutions were soaked into capillaries and placed into a Prometheus NT.48 nanoDSF device (NanoTemper Technologies, Munich, Germany). Changes in the intrinsic tryptophan or tyrosine fluorescence that occurred after LED laser excitement upon protein unfolding in a thermal gradient was detected at 330 nm and 350 nm, respectively. […] The first derivative of the fluorescence wavelength ratio of 350/330 nm upon thermal protein unfolding was used to calculate transition midpoint (Tm) of single and multiple transition states.
A general note: DSF heats the sample and reads unfolding from a dye or from intrinsic fluorescence.

Data set [3] relates to monocrotaline (MCT)-treated C57BL/6 mice. Kind of data set: Pulmonary hypertension mouse model, test series 1. It counts as in vivo. As to conditions: MCT+compound chow vs MCT. As for the experimental part: The animal experiments were approved by the Regierungspräsidium Karlsruhe (35-9185.81/G-141/13) and the Regierungspräsidium Leipzig (TVV 40/16). Three groups of mice were included in this study, including: 1) saline-treated (sham; n=20); 2) monocrotaline (MCT)-treated fed normal chow (MCT; n=27); and 3) MCT-treated fed MuRF1 inhibitor chow (MCT+compound; n=27). Briefly, C57BL/6 mice (aged 8 weeks) were subcutaneously injected weekly with either MCT (600 mg/kg) or a matched volume of saline for 6 weeks, a time period where MCT is known to induce cardiac cachexia due to pulmonary hypertension and subsequent RV dysfunction rather than anorexia, as described by Ahn et al., PLoS One, 2013, 8:e62702. Mice were exposed to identical conditions under a 12:12 h light/dark cycle with food and water provided ad libitum. The MCT+compound group started receiving the inhibitor chow 1 week prior to the MCT injections, whereas the sham and MCT groups were fed an identical chow but without the addition of the selected compound. Body weight was recorded every week for each mouse. […]
For histological evaluation, paraffin-embedded TA muscle sections (3 μm) were stained with H&E and fiber cross-sectional area (CSA) and then evaluated by imaging software (Analysis 3.0, Olympus Soft Imaging Solutions GmbH, Munster, Germany). […]

The test system of the next data set is Murine C2C12 myoblasts. Kind of data set: Cytotoxicity, LDH release in cultured myoblasts. It counts as cell-based. As to conditions: increasing concentrations, 24 h. The method, then: Murine C2C12 myoblasts (CRL-1772, ATCC) were cultured in DMEM (Lonza; Basel, Switzerland) supplemented with 10% fetal calf serum (FCS; Gibco®Invitrogen, Carlsbad, CA). For induction of differentiation into myotubes, subconfluent cultures were switched to DMEM containing 2% horse serum (Sigma-Aldrich; Seelze, Germany). Myotubes were subsequently pre-treated for 2 h with increasing compound concentrations (0.1 to 10 μmol/L, dissolved in DMSO) or with an equal volume of DMSO before treatment for 24 h with 10 μmol/L dexamethasone (DEX; Sigma-Aldrich; Seelze, Germany). Myotube diameter was then evaluated by image analysis software (Analysis 3.0, Olympus Soft Imaging Solutions GmbH, Munster, Germany). To determine cytotoxicity of selected compounds, myoblasts or myotubes were incubated with increasing concentrations for 24 h. Subsequently, the concentration of lactate dehydrogenase (LDH) activity was quantified in the cell culture supernatant as a measure for cell destruction as described in Bellocci et al., Anal Biochem, 2008, 374, 48-55.

Entries after “also recorded” stand apart in the source; their conditions may differ.

For the compound `Cc1cc(=O)oc2cc(OCc3ccc(C(=O)OCC(=O)NC(=O)NCc4ccco4)cc3)ccc12` [MyoMed-946, [2-(2-furylmethylcarbamoylamino)-2-oxo-ethyl] 4-[(4-methyl-2-oxo-chromen-7-yl)oxymethyl]benzoate], the decay on storage result in data set [1] is “no trace of decay”. Also, in data set [2] (CHF+compound), the TOM-20 expression result is “attenuated; also recorded: modest, but statistically significant, improvement” and the mitochondrial porin expression result was “attenuated; also recorded: near-normal”. Further, in data set [2] (CHF+compound vs CHF), the “reduction of Mrps5 expression (Western blot)” value is “reversed”, the “up-regulation of MuRF1 expression” value is recorded as “attenuated; also recorded: prevented” and the “up-regulation of MuRF2 expression” value is reported as “attenuated; also recorded: prevented”. In addition, in data set [2] (trend (P=0.08) in CHF group), the “reduced expression of telethonin” value was “attenuated; also recorded: not evident”. In addition, in the data set with MuRF1 central fragment, the “main Tm of MuRF1 central fragment” value was found to be 52.5 °C. In addition, the right ventricle hypertrophy result in data set [3] (6 weeks MCT) is reported as “attenuated; also recorded: attenuates the development of right ventricle hypertrophy”. Further, in data set [3] (most obvious effect in TA muscle), the “loss of skeletal muscle mass (EDL, soleus, TA wet weight, TA fiber CSA)” value was “protected”. Also, the “toxicity (LDH release)” value with Murine C2C12 myoblasts is on record as “low toxicity”.
